# In paper PMC4772116 (Scientific Reports, 2016):
# Where a SMILES comes first, the peptide text is derived from it. Bridges are numbered along the chain shown (N, C = ends).
# Columns and labels:
# [1] = biological target: human α3β4 nAChR (Homo sapiens, UniProt P30926+P32297); assay: cell-based
# [2] = biological target: human α3β2 nAChR (Homo sapiens, UniProt P17787+P32297); assay: cell-based; assay type: cell-based
# [3] = biological target: Ac-AChBP (Aplysia californica, UniProt Q8WSF8); assay: biochemical; assay type: binding
# Ac-AChBP, sequence (Q8WSF8 20-236 limits assumed): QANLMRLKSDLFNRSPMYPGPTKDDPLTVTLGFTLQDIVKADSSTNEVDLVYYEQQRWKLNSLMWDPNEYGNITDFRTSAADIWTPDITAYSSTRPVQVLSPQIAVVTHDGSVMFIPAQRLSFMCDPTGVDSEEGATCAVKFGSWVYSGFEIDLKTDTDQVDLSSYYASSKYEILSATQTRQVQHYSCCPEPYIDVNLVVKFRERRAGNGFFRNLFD
# human α3β4 nAChR, sequence (P32297 32-505 limits assumed): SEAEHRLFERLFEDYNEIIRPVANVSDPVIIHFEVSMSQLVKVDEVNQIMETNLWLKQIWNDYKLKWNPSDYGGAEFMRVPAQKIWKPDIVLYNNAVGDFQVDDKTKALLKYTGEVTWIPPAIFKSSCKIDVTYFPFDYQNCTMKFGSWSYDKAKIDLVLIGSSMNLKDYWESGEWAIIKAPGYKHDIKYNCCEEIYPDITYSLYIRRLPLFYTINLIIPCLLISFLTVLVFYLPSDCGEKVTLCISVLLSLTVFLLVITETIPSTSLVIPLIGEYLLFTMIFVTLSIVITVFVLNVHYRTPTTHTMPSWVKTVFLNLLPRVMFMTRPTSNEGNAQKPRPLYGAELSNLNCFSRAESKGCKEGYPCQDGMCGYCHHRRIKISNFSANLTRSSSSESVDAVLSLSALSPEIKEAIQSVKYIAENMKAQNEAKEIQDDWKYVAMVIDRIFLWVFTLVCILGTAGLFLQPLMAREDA
# human α3β4 nAChR, sequence (P30926 22-498 limits assumed): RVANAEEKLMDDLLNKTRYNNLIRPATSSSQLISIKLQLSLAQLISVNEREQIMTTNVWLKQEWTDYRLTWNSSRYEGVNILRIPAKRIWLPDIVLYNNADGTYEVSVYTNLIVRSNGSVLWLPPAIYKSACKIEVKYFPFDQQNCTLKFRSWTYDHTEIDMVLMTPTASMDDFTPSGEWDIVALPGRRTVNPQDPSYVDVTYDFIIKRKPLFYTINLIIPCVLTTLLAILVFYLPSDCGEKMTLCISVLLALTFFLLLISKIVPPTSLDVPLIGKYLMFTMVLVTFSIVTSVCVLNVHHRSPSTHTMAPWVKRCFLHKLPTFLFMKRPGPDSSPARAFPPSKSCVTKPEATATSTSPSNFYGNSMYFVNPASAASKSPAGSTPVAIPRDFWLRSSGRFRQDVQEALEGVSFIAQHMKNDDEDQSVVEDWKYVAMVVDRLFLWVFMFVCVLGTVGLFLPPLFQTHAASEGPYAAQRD
# human α3β2 nAChR, sequence (P32297 32-505 limits assumed): as the sequence (P32297 32-505 limits assumed) above
# human α3β2 nAChR, sequence (P17787 26-502 limits assumed): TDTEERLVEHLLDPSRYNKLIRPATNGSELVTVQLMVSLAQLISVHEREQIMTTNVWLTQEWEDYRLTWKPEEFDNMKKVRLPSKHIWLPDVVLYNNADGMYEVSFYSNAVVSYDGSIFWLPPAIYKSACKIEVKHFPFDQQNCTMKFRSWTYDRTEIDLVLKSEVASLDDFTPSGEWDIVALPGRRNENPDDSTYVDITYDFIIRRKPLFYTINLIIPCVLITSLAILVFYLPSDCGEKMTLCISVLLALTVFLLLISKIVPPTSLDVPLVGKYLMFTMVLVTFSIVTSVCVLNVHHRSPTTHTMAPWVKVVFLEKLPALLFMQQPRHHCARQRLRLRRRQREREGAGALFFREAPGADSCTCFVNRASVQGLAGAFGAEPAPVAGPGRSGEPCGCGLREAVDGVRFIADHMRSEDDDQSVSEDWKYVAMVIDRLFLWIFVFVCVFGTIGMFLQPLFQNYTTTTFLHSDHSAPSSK
smiles,measurement,setting,value
"CC[C@H](C)[C@@H]1NC(=O)[C@H](Cc2c[nH]cn2)NC(=O)[C@H](CCC(N)=O)NC(=O)[C@H](CC(N)=O)NC(=O)[C@H](CC(N)=O)NC(=O)CNC(=O)[C@H](C)NC(=O)[C@@H]2CSSC[C@H](NC(=O)CN)C(=O)N[C@@H](CSSC[C@@H](C(N)=O)NC1=O)C(=O)N[C@@H](CO)C(=O)N[C@@H](Cc1c[nH]cn1)C(=O)N1CCC[C@H]1C(=O)NCC(=O)N2 [GIC(A7G)] (H-GCCSHPGCAGNNQHIC-NH2; disulfide 2-8, 3-16)",IC50,[1],> 10 µM
same,IC50,[2],4.21 µM
"CC[C@H](C)[C@@H]1NC(=O)[C@H](Cc2c[nH]cn2)NC(=O)[C@H](CCC(N)=O)NC(=O)[C@H](CC(N)=O)NC(=O)[C@H](CC(N)=O)NC(=O)CNC(=O)[C@H](C)NC(=O)[C@@H]2CSSC[C@H](NC(=O)CN)C(=O)N[C@@H](CSSC[C@@H](C(N)=O)NC1=O)C(=O)N[C@@H](CO)C(=O)N[C@@H](Cc1c[nH]cn1)C(=O)N1CCC[C@H]1C(=O)N[C@@H](CC(C)C)C(=O)N2 [GIC(A7L)] (H-GCCSHPLCAGNNQHIC-NH2; disulfide 2-8, 3-16)",IC50,[1],> 10 µM
same,Decrease in the inhibition of α3β2 nAChR versus wild-type GIC,[2],"more than 10,000 fold"
same,IC50,[2],> 10 µM
"CC[C@H](C)[C@@H]1NC(=O)[C@H](Cc2c[nH]cn2)NC(=O)[C@H](CCC(N)=O)NC(=O)[C@H](CC(N)=O)NC(=O)[C@H](CC(N)=O)NC(=O)CNC(=O)[C@H](C)NC(=O)[C@@H]2CSSC[C@H](NC(=O)CN)C(=O)N[C@@H](CSSC[C@@H](C(N)=O)NC1=O)C(=O)N[C@@H](CO)C(=O)N[C@@H](C)C(=O)N1CCC[C@H]1C(=O)N[C@@H](C)C(=O)N2 [GIC(H5A)] (H-GCCSAPACAGNNQHIC-NH2; disulfide 2-8, 3-16)",Increase in the IC50 value for Ac-AChBP versus wild-type GIC,[3],~100 fold
same,IC50,[1],> 10 µM
same,Decrease in the inhibition of α3β2 nAChR versus wild-type GIC,[2],"more than 10,000 fold"
same,IC50,[2],> 10 µM
"CC[C@H](C)[C@@H]1NC(=O)[C@H](Cc2c[nH]cn2)NC(=O)[C@H](CCC(N)=O)NC(=O)[C@H](CC(N)=O)NC(=O)[C@H](C)NC(=O)CNC(=O)[C@H](C)NC(=O)[C@@H]2CSSC[C@H](NC(=O)CN)C(=O)N[C@@H](CSSC[C@@H](C(N)=O)NC1=O)C(=O)N[C@@H](CO)C(=O)N[C@@H](Cc1c[nH]cn1)C(=O)N1CCC[C@H]1C(=O)N[C@@H](C)C(=O)N2 [GIC(N11A)] (H-GCCSHPACAGANQHIC-NH2; disulfide 2-8, 3-16)",IC50,[1],> 10 µM
same,IC50,[2],1.6 µM
"CC[C@H](C)[C@@H]1NC(=O)[C@H](Cc2c[nH]cn2)NC(=O)[C@H](CCC(N)=O)NC(=O)[C@H](C)NC(=O)[C@H](CC(N)=O)NC(=O)CNC(=O)[C@H](C)NC(=O)[C@@H]2CSSC[C@H](NC(=O)CN)C(=O)N[C@@H](CSSC[C@@H](C(N)=O)NC1=O)C(=O)N[C@@H](CO)C(=O)N[C@@H](Cc1c[nH]cn1)C(=O)N1CCC[C@H]1C(=O)N[C@@H](C)C(=O)N2 [GIC(N12A)] (H-GCCSHPACAGNAQHIC-NH2; disulfide 2-8, 3-16)",IC50,[1],> 10 µM
same,IC50,[2],1.98 µM
CC[C@H](C)[C@@H]1NC(=O)[C@H](Cc2c[nH]cn2)NC(=O)[C@H](C)NC(=O)[C@H](CC(N)=O)NC(=O)[C@H](CC(N)=O)NC(=O)CNC(=O)[C@H](C)NC(=O)[C@@H]2CSSC[C@H](NC(=O)CN)C(=O)N[C@@H](CSSC[C@@H](C(N)=O)NC1=O)C(=O)N[C@@H](CO)C(=O)N[C@@H](Cc1c[nH]cn1)C(=O)N1CCC[C@H]1C(=O)N[C@@H](C)C(=O)N2 [GIC(Q13A)],IC50,[1],0.66 µM
same,IC50,[2],0.00841 µM
